The assay deals with L1210 leukemia ip in BDF1 mice, survival T/C. Kind of assay: NCI In Vivo Anticancer Drug Screen. Data for tumor model L1210 Leukemia (intraperitoneal) in B6D2F1 (BDF1) mice. To be noted: endpoint: mean survival time, higher = longer survival. The procedure, abridged: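 Tumor was transplanted into mice, which were then dosed with test compound or vehicle alone. Survival was recorded for each group, and the treated figure was expressed relative to the control figure.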

The mark [1] stands for this setting: dose: 100.0 mg/kg/injection, schedule: Q01DX001 (ip), vehicle: saline.
Where [2] appears, read: dose: 200.0 mg/kg/injection, schedule: Q01DX001 (ip), vehicle: saline.
[3] abbreviates: dose: 400.0 mg/kg/injection, schedule: Q01DX001 (ip), vehicle: saline.
Setting [4] is: dose: 100.0 mg/kg/injection, schedule: Q01DX009 (ip), vehicle: Klucel (hydroxypropylcellulose) (HPC).
Setting [5] is: dose: 100.0 mg/kg/injection, schedule: Q04DX003 (ip), vehicle: Klucel (hydroxypropylcellulose) (HPC).
Where [6] appears, read: dose: 200.0 mg/kg/injection, schedule: Q01DX009 (ip), vehicle: Klucel (hydroxypropylcellulose) (HPC).
Setting [7] is: dose: 200.0 mg/kg/injection, schedule: Q04DX003 (ip), vehicle: Klucel (hydroxypropylcellulose) (HPC).
Setting [8] is: dose: 400.0 mg/kg/injection, schedule: Q01DX009 (ip), vehicle: Klucel (hydroxypropylcellulose) (HPC).
[9] abbreviates: dose: 400.0 mg/kg/injection, schedule: Q04DX003 (ip), vehicle: Klucel (hydroxypropylcellulose) (HPC).
Setting [10] is: dose: 100.0 mg/kg/injection, schedule: Q01DX001 (ip), vehicle: Klucel (hydroxypropylcellulose) (HPC).
Setting [11] is: dose: 200.0 mg/kg/injection, schedule: Q01DX001 (ip), vehicle: Klucel (hydroxypropylcellulose) (HPC).
Where [12] appears, read: dose: 400.0 mg/kg/injection, schedule: Q01DX001 (ip), vehicle: Klucel (hydroxypropylcellulose) (HPC).
[13] abbreviates: dose: 100.0 mg/kg/injection, schedule: Q04DX003 (ip), vehicle: saline with Tween-80.
Where [14] appears, read: dose: 200.0 mg/kg/injection, schedule: Q04DX003 (ip), vehicle: saline with Tween-80.
Where [15] appears, read: dose: 400.0 mg/kg/injection, schedule: Q04DX003 (ip), vehicle: saline with Tween-80.

Molecules are shown by their SMILES. Where “and” joins values, the source holds several entries; their conditions need not be identical. Equal entries are not always repeated. Toxic doses and inconclusive results are not listed.

Take `Cc1ccc(S(=O)(=O)OCCN(CCOS(=O)(=O)c2ccc(C)cc2)c2ccc(F)cc2)cc1`: the T/C is, setting by setting: (dose: 1.9 mg/kg/injection, schedule: Q01DX009 (ip), vehicle: saline) 122 % of control; (dose: 4.4 mg/kg/injection, schedule: Q01DX009 (ip), vehicle: saline) 122 % of control; (dose: 6.5 mg/kg/injection, schedule: Q01DX009 (ip), vehicle: saline) 102 % of control; (dose: 9.6 mg/kg/injection, schedule: Q01DX009 (ip), vehicle: saline) 124 % of control; (dose: 10.0 mg/kg/injection, schedule: Q01DX009 (ip), vehicle: saline) 118 % of control; (dose: 16.0 mg/kg/injection, schedule: Q01DX009 (ip), vehicle: saline) 113 % of control. For the same molecule, the T/C is, setting by setting: (dose: 22.0 mg/kg/injection, schedule: Q01DX009 (ip), vehicle: saline) 166 % of control; (dose: 23.0 mg/kg/injection, schedule: Q01DX009 (ip), vehicle: saline) 113 % of control; (dose: 24.0 mg/kg/injection, schedule: Q01DX009 (ip), vehicle: saline) 152 % of control; (dose: 35.0 mg/kg/injection, schedule: Q01DX009 (ip), vehicle: saline) 121 % of control; (dose: 50.0 mg/kg/injection, schedule: Q01DX001 (ip), vehicle: saline) 97 % of control; (dose: 50.0 mg/kg/injection, schedule: Q01DX009 (ip), vehicle: saline) 95 % of control. Further, the T/C was 110 % of control (dose: 53.0 mg/kg/injection, schedule: Q01DX009 (ip), vehicle: other); 88 % of control (dose: 75.0 mg/kg/injection, schedule: Q01DX009 (ip), vehicle: saline); 98 % of control and 119 % of control (dose: 79.0 mg/kg/injection, schedule: Q01DX009 (ip), vehicle: other); 100 % of control under setting [1]; 104 % of control (dose: 118.0 mg/kg/injection, schedule: Q01DX009 (ip), vehicle: other); 123 % of control (dose: 150.0 mg/kg/injection, schedule: Q01DX009 (ip), vehicle: saline). Moreover, the T/C runs as follows: under setting [2], 105 % of control; under setting [3], 115 % of control.
Take `Cc1cccc(C)c1NC(=O)C(Cl)c1ccccc1` (centres undefined): the T/C under setting [4] was 107 % of control; the T/C under setting [5] is 98 % of control; the T/C under setting [6] was 91 % of control; the T/C under setting [7] is 98 % of control; the T/C under setting [8] was 98 % of control; the T/C under setting [9] is 98 % of control.
On to `CCCCCCCCCCCC[N+](CCCCCCCCCCCC)=C1SCCS1`, for which the T/C (dose: 1.56 mg/kg/injection, schedule: Q04DX003 (ip), vehicle: carboxymethylcellulose (CMC)) is 96 % of control; the T/C (dose: 3.13 mg/kg/injection, schedule: Q04DX003 (ip), vehicle: carboxymethylcellulose (CMC)) is 104 % of control; the T/C (dose: 6.25 mg/kg/injection, schedule: Q04DX003 (ip), vehicle: carboxymethylcellulose (CMC)) was 110 % of control.
With `Cc1ccc(NC(=O)COc2ccc(Cl)cc2)c([N+](=O)[O-])c1`, the T/C runs as follows: under setting [4], 101 % of control; under setting [5], 88 % of control; under setting [6], 101 % of control; under setting [7], 90 % of control; under setting [8], 91 % of control; under setting [9], 88 % of control.
As to `CS(=O)(=O)/C=C(\I)c1ccccc1`, the T/C reads like this: under setting [1], 97 % of control; under setting [2], 97 % of control; under setting [3], 93 % of control.
On to `CCCCCC(=O)C(CCCC)C(=O)Nc1ccccc1` (centres undefined), for which the T/C reads like this: (dose: 100.0 mg/kg/injection, schedule: Q01DX001 (ip), vehicle: carboxymethylcellulose (CMC)) 96 % of control; (dose: 200.0 mg/kg/injection, schedule: Q01DX001 (ip), vehicle: carboxymethylcellulose (CMC)) 91 % of control; (dose: 400.0 mg/kg/injection, schedule: Q01DX001 (ip), vehicle: carboxymethylcellulose (CMC)) 91 % of control.
Regarding `CS(=O)CCCC(=O)O` (centres undefined), the T/C (dose: 100.0 mg/kg/injection, schedule: Q01DX001 (ip), vehicle: saline with Tween-80) was 102 % of control; the T/C (dose: 200.0 mg/kg/injection, schedule: Q01DX001 (ip), vehicle: saline with Tween-80) was 94 % of control; the T/C (dose: 400.0 mg/kg/injection, schedule: Q01DX001 (ip), vehicle: saline with Tween-80) is 97 % of control.
As for `COC1OCC(O)C(O)C1OS(C)(=O)=O` (centres undefined), the T/C was 110 % of control under setting [1], 101 % of control under setting [2] and 104 % of control under setting [3].
For the molecule `Clc1ccc(Sc2ccccc2)cc1`, the T/C is, setting by setting: under setting [5], 105 % of control; under setting [7], 88 % of control; under setting [9], 105 % of control.
Take `O=C(NCCCl)Nc1ccc(C(=O)O)c(O)c1`: the T/C runs as follows: (dose: 80.0 mg/kg/injection, schedule: Q04DX002 (ip), vehicle: Klucel (hydroxypropylcellulose) (HPC)) 98 % of control; (dose: 160.0 mg/kg/injection, schedule: Q04DX002 (ip), vehicle: Klucel (hydroxypropylcellulose) (HPC)) 88 % of control; (dose: 320.0 mg/kg/injection, schedule: Q04DX002 (ip), vehicle: Klucel (hydroxypropylcellulose) (HPC)) 91 % of control.
On to `CC(=O)ONC(NOC(C)=O)N[N+](=O)[O-]`, for which the T/C by setting is: under setting [1], 103 % of control; under setting [2], 98 % of control; under setting [3], 102 % of control.
In the case of `O=c1[nH]cc(Cl)cc1Cl`, the T/C is 94 % of control under setting [4], 94 % of control under setting [6] and 108 % of control under setting [8].
For the molecule `CC(=O)C1=C(O)C(c2ccccc2)c2ccccc21` (centres undefined), the T/C was 108 % of control under setting [10]; 100 % of control under setting [5]; 103 % of control under setting [11]; 103 % of control under setting [7]; 100 % of control under setting [12]; 95 % of control under setting [9].
Take `O=C(c1ccc(Cl)cc1Cl)C(CS(=O)(=O)O)CS(=O)(=O)O`: the T/C was 99 % of control under setting [13], 98 % of control under setting [14] and 100 % of control under setting [15].
`O=C(Nc1cc2ccccc2nc1-c1ccccc1)c1ccccc1`: the T/C under setting [1] was 92 % of control.
As for `[O-]/[N+](=C\c1ccccc1)Cc1ccccc1`, the T/C was 94 % of control (dose: 100.0 mg/kg/injection, schedule: Q04DX003 (ip), vehicle: carboxymethylcellulose (CMC)) and 97 % of control (dose: 200.0 mg/kg/injection, schedule: Q04DX003 (ip), vehicle: carboxymethylcellulose (CMC)).
In the case of `CCOC(=O)C1(C(=O)OCC)CC(=O)c2c(OC)ccc(OC)c2C1`, the T/C is 94 % of control (dose: 12.5 mg/kg/injection, schedule: Q04DX003 (ip), vehicle: Klucel (hydroxypropylcellulose) (HPC)); 105 % of control (dose: 25.0 mg/kg/injection, schedule: Q04DX003 (ip), vehicle: Klucel (hydroxypropylcellulose) (HPC)); 98 % of control (dose: 50.0 mg/kg/injection, schedule: Q04DX003 (ip), vehicle: Klucel (hydroxypropylcellulose) (HPC)); 98 % of control under setting [10]; 95 % of control under setting [5]; 98 % of control under setting [11]. The T/C runs as follows: under setting [7], 103 % of control; under setting [12], 106 % of control; under setting [9], 111 % of control.
For the molecule `O=c1[nH]c2ccc(Cl)cc2c(=O)o1`, the T/C under setting [1] is 92 % of control; the T/C (dose: 100.0 mg/kg/injection, schedule: Q01DX009 (ip), vehicle: saline) is 100 % of control; the T/C under setting [2] was 95 % of control; the T/C (dose: 200.0 mg/kg/injection, schedule: Q01DX009 (ip), vehicle: saline) is 98 % of control; the T/C under setting [3] is 101 % of control; the T/C (dose: 400.0 mg/kg/injection, schedule: Q01DX009 (ip), vehicle: saline) was 90 % of control.
In the case of `COC(=O)C(CCC(=O)CCl)N1C(=O)c2ccccc2C1=O` (centres undefined), the T/C was 89 % of control under setting [13] and 89 % of control under setting [14].
In the case of `O=C(O)C1C2C=CC(C2)C1c1ccccc1` (centres undefined), the T/C is, setting by setting: (dose: 100.0 mg/kg/injection, schedule: Q01DX009 (ip), vehicle: saline with Tween-80) 101 % of control; under setting [13], 97 % of control; (dose: 200.0 mg/kg/injection, schedule: Q01DX009 (ip), vehicle: saline with Tween-80) 97 % of control; under setting [14], 93 % of control; (dose: 400.0 mg/kg/injection, schedule: Q01DX009 (ip), vehicle: saline with Tween-80) 98 % of control; under setting [15], 114 % of control.

The record behind these values is PubChem BioAssay AID248 (DTP/NCI, 2004).
